Measurements published in patent US20230043863A1, “HETEROAROMATIC DERIVATIVES FOR USE AS REGULATOR, PREPARATION METHOD THEREFOR AND USE THEREOF” (JIANGSU HANSOH PHARMACEUTICAL GROUP CO., LTD., priority 2018, published 2023).
pIC50: −log10 of the molar value. Where two headings read alike, the source gives them in different places.

Experiments:
JAK1 = JAK1 (Homo sapiens, UniProt P23458); experiment: JAK kinase activity inhibition, TR-FRET (JAK1); type: biochemical; conditions: TR-FRET kinase assay
Sequence of JAK1 (P23458 whole entry): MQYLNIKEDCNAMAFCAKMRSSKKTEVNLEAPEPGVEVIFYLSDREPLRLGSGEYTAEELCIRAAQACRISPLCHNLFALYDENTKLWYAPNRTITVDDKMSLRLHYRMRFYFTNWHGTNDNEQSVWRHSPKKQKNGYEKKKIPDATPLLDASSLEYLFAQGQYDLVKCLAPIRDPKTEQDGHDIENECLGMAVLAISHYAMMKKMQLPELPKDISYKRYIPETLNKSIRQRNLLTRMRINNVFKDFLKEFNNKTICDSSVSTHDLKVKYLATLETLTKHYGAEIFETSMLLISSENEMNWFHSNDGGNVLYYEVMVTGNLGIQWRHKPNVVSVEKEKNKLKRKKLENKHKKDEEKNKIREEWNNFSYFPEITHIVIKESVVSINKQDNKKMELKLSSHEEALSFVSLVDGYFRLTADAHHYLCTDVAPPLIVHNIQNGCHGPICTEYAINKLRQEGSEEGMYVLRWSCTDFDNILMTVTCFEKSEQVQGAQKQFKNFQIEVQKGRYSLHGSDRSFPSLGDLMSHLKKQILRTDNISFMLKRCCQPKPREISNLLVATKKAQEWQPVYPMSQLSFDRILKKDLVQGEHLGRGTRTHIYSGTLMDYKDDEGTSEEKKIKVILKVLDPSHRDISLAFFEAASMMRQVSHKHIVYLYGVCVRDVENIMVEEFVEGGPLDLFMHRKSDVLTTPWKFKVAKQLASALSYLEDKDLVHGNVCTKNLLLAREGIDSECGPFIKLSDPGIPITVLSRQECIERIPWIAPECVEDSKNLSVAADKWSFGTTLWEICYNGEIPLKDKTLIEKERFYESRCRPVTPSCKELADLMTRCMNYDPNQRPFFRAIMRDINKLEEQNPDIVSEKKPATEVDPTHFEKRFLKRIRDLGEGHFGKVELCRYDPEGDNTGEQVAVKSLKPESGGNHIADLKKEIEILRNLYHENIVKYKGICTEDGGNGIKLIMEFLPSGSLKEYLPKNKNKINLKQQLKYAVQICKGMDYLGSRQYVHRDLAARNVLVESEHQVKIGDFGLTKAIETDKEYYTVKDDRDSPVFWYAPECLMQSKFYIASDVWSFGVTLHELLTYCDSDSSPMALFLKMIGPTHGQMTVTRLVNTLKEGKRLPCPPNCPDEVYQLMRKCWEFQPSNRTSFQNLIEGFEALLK
Procedure, shortened: (§1)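 Enzymatic inhibition measured by time-resolved FRET using 0.1-20 nM kinase with peptide substrate and ATP, reacted 0.5-5 hours at room temperature. Percent inhibition was normalized to DMSO (no inhibitor) and kinase-free wells, and concentration-response data were fitted with a 4-parameter logistic model.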

JAK2 = JAK2 (Homo sapiens, UniProt O60674); experiment: JAK kinase activity inhibition, TR-FRET (JAK2); type: biochemical; conditions: TR-FRET kinase assay
Sequence of JAK2 (O60674 whole entry): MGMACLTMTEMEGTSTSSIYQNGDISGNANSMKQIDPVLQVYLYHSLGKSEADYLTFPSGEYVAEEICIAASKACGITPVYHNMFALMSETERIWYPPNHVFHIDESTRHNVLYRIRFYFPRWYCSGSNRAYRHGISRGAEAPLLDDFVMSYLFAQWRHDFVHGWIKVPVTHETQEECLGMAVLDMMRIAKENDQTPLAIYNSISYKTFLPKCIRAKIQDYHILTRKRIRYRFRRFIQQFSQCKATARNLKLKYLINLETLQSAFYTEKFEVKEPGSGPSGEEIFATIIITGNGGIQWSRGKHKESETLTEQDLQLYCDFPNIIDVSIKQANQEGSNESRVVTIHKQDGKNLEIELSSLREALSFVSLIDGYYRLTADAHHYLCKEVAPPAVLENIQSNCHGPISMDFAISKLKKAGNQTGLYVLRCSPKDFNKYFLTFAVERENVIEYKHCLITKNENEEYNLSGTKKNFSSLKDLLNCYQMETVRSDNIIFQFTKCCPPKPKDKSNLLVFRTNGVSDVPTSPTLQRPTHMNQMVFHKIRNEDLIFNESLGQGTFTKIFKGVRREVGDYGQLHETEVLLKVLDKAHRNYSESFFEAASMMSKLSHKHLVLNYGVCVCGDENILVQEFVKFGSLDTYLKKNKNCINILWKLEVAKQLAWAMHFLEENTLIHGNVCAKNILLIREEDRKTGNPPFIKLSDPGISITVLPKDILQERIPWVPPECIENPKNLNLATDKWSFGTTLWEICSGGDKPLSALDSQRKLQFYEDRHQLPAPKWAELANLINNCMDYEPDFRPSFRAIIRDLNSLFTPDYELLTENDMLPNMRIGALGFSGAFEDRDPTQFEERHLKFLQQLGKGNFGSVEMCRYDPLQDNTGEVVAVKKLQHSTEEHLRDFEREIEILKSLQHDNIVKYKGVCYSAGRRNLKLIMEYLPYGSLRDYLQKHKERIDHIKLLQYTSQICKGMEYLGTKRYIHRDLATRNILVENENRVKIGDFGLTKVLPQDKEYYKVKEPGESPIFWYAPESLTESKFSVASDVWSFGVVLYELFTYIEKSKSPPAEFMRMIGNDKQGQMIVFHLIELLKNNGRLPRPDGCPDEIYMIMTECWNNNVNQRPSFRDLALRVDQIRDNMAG
Method: (§2) Experimental objective: The objective of this test is to test the inhibitory effect of the compound on JAK kinase activity.
(§3) Experimental method: the fluorescence resonance energy transfer (TR-FRET) method was used to test the inhibitory effect of the compound on JAK kinase activity, and the half inhibitory concentration IC50 of the compound on JAK kinase activity was obtained.
(§4) Kinase reaction was carried out in a white 384-well plate (PerkinElmer). 1-5 μL of different concentrations of the compound diluted with DMSO and ddH2O was added into each well, and 1-5 μL of the corresponding solvent was added to the positive control wells, followed by addition of 0.1-20 nM JAK kinase solution diluted with 1-5 μL of kinase buffer (HEPES 50-250 mM, MgCl2 5-20 mM, etc.) was added to each well. 1-5 μL of kinase buffer was added to the negative control well. 1-5 μL of substrate mixture containing peptide substrate and ATP was added. The plate was incubated at room temperature for 0.5-5 hours. […], EDTA and detection solution containing labeled antibody was added, and then the plate was incubated at room temperature for another 1-24 hours. The fluorescence signal value at about 620 nm and 665 nm of each well was measured by BioTek Synergy H1 plate reader, and the inhibition rate was calculated by the fluorescence signal value. According to the inhibition rate of different concentrations, the IC50 of the compound was obtained by curve fitting.
(§5) The percentage inhibition data of the wells treated with the compound was calculated with the positive control wells (DMSO control wells) and negative control wells (no kinase added) on the plate {% inhibition rate=100-[(test compound value-negative control value)]/(Positive control value-negative control value)×100}. IC50 value was calculated by using GraphPad prism to fit the data of different concentrations and corresponding percentage inhibition rates to a 4-parameter non-linear logic formula.

JAK3 = target: T1, JAK3 (Homo sapiens, UniProt P52333); experiment: JAK kinase activity inhibition, TR-FRET (JAK3); type: biochemical; conditions: TR-FRET kinase assay
T1 sequence (P52333 1-1124): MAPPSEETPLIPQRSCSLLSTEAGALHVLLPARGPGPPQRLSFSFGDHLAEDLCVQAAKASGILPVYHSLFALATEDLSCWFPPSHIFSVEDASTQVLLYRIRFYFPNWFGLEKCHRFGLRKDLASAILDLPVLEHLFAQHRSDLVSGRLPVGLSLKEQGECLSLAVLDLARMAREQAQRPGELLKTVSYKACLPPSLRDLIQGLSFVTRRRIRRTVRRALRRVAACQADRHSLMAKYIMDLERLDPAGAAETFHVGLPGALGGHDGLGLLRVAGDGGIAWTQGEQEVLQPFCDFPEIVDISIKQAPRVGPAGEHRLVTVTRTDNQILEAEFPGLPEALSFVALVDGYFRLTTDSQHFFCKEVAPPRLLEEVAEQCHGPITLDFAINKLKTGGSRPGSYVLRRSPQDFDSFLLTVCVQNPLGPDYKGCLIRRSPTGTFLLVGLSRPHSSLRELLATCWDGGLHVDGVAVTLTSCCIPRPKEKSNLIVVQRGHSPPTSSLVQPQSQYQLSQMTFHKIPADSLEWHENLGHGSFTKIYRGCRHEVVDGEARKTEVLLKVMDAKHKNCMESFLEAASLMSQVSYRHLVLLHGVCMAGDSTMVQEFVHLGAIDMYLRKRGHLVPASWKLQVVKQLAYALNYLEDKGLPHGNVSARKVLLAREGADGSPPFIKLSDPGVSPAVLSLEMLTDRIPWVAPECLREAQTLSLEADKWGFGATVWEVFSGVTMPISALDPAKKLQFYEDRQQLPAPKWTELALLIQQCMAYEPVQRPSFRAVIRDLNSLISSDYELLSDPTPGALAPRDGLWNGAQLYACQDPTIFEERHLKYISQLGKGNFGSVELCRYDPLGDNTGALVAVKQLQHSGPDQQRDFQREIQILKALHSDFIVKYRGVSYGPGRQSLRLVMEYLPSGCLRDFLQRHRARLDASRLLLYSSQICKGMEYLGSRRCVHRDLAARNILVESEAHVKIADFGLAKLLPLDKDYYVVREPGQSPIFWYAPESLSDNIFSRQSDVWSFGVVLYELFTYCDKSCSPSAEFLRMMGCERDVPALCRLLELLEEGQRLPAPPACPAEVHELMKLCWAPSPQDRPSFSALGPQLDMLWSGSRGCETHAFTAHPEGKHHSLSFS
Method: as §2, §3, §4, §5

TYK2 = TYK2 (Homo sapiens, UniProt P29597); experiment: JAK kinase activity inhibition, TR-FRET (TYK2); type: biochemical; conditions: TR-FRET kinase assay
Sequence of TYK2 (P29597 whole entry): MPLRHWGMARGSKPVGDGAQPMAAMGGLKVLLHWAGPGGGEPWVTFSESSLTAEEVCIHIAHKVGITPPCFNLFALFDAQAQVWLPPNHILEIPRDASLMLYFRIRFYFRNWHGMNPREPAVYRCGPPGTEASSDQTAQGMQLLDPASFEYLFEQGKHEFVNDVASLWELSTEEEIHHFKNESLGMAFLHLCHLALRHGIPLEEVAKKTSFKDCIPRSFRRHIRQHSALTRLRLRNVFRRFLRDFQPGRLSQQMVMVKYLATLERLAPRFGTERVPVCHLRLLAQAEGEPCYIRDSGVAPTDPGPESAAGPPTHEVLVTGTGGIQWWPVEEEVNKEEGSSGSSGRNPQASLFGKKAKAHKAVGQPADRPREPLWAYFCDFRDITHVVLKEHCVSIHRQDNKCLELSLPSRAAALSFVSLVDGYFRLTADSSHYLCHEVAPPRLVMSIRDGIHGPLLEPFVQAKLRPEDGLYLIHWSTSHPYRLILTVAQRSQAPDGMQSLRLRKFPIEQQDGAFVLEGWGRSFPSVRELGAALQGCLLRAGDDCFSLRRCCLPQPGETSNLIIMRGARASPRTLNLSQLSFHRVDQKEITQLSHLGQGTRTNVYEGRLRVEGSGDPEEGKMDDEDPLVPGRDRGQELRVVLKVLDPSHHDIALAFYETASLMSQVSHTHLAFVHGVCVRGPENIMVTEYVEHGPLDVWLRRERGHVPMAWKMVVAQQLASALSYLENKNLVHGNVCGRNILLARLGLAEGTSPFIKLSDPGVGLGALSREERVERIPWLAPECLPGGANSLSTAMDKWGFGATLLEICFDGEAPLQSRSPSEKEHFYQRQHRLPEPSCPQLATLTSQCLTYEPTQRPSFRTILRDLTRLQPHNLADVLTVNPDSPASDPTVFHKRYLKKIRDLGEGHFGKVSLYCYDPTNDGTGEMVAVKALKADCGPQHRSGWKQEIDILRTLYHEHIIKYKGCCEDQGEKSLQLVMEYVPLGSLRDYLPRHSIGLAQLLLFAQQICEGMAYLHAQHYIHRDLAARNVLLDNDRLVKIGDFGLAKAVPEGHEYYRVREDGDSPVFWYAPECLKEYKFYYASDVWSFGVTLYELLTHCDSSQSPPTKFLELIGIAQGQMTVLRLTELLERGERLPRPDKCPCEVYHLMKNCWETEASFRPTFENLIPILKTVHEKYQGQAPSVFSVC
Procedure, shortened: as §1

[1] = test system: JAK-STAT signal pathway of U266 cells; experiment: Inhibition of cellular JAK-STAT signal pathway (STAT3 phosphorylation) in U266 cells; type: cell-based, human; conditions: Homo sapiens, U-266, INF-a 1000 U/mL stimulation
Procedure, shortened: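 U266 cells (100-300 K/well) preincubated 2 h at room temperature with serially diluted compound, then stimulated 15 min with IFN-α at 1000 U/mL final. After lysis, STAT3 phosphorylation read by LANCE Ultra TR-FRET (Eu antibody 0.5 nM, ULight antibody 5 nM, overnight) at 665 nm; IC50 from 4-parameter fit of inhibition versus DMSO and negative controls.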

[2] = Balb/C mouse pharmacokinetics (plasma, colon, ileum); type: in vivo; conditions: male, po, Balb/C mice, p.o. 5 mg/kg; for Cmax: read-out: Blood concentration Cmax; for AUC(0-t): read-out: Curve area AUC0-t; for AUC(0-inf): read-out: Curve area AUC0-∞; for half-life: read-out: Half life period t1/2 (converted); for MRT: read-out: Mean detention time MRT; for Tmax: read-out: Time to peak tmax
Excerpt: Balb/C mouse was used as the test animal, the pharmacokinetic behavior in mice (plasma and colon, ileum tissue) was studied after oral administering the embodiment 1, embodiment 60, embodiment 169, embodiment 170, embodiment 171, embodiment 179, embodiment 191, embodiment 213, embodiment 214, embodiment 237, embodiment 238, embodiment 244, embodiment 246, embodiment 247, embodiment 257, embodiment 260, embodiment 262, embodiment 263, embodiment 267, embodiment 277, embodiment 278, embodiment 279, embodiment 288, embodiment 295, embodiment 299 and embodiment 301 at a dose of 5 mg/kg. After analyzing the drug concentration in the colon and ileum, the ratio of the drug concentration in the colon to that in ileum, and the ratio of the drug concentration in the colon to that in the plasma, the compounds with excellent PK were selected for further research.
12 Balb/C mice in each group, male, Shanghai Jiesjie Experimental Animal Co., Ltd., animal production license number (SCXK (Shanghai) 2013-0006 N0.311620400001794).
12 Balb/C mice in each group, male; p.o. after one night fast; the dose was 5 mg/kg; the administration volume was 10 mL/kg.
At 0, 0.5, 1, 2, 3, 5 and 7 hours before and after the administration, the mice were executed by CO2 and 0.2 mL of blood was collected from the heart, placed in an EDTA-K2 test tube, and centrifuged at 6000 rpm at 4° C. for 6 minutes to separate the plasma, which was then stored at −80° C. The ileum was taken close to the cecum end with a length of about 4-5 cm, and the colon was also taken close to the cecum end with a length of about 2-3 cm, weighed and placed in a 2 mL centrifuge tube, then stored at −80° C.
1) 40 uL of plasma sample was precipitated by adding 160 uL of acetonitrile, mixed and centrifuged at 3500×g for 5-20 minutes.
2) 30 μL of plasma and intestinal homogenate sample were precipitated by adding 90 of acetonitrile containing internal standard (100 ng/mL), mixed and centrifuged at 13000 rpm for 8 minutes.
3) 70 μL of the supernatant solution after treatment was collected and 70 μL of water was added thereto, vortexed and mixed for 10 minutes, and then 20 μL was collected to analyze the concentration of the test compound by LC/MS/MS. LC/MS/MS analysis instrument: AB Sciex API 4000 Qtrap.
Liquid phase conditions: Shimadzu LC-20AD Pump
Chromatographic column: Agilent ZORBAX XDB-C18 (50×2.1 mm, 3.5 μm) mobile phase: 0.1% formic acid aqueous solution as A solution, acetonitrile as B solution
Elution time: 0-4.0 minutes, the eluent is as follows:
The main pharmacokinetic parameters were calculated with WinNonlin 6.1, and the results of mouse pharmacokinetic experiments are shown in Table 3:
NA refers to none detected or not being tested (the detection limit of blood concentration was 1 ng/mL, when the Cmax in the blood test is NA, then NA in the blood test index refers to none detected; when the Cmax in the blood test is higher than the quantitative limit 1 ng/mL, then NA in the blood test index refers to not being tested; NA in the tissues (colon and ileum) refers to not being tested).

Row | SMILES | pIC50 (JAK1) | pIC50 (JAK2) | pIC50 (JAK3) | pIC50 (TYK2) | further results
1 | Cc1cc(Nc2nc(N[C@@H]3C[C@H]4CC[C@@H](C3)N4CCC#N)nc3[nH]ccc23)n[nH]1 [Embodiment 3, 3-((3-exo)-3-((4-((5-methyl-1H-pyrazol-3-yl)amino)-7H-pyrrolo[2,3-d]pyrimidin-2-yl)amino)-8-azabicyclo[3.2.1]oct-8-yl)propionitrile] | 9.96 | 9.54 | 9.09 | 9.77 | pIC50 [1]: 8.35
2 | Cc1cc(Nc2nc(N[C@@H]3C[C@H]4CC[C@@H](C3)N4CCC#N)nc3cc(-c4cnn(C)c4)ccc23)n[nH]1 [Embodiment 186, 3-((3-exo)-3-((4-((5-methyl-1H-pyrazol-3-yl)amino)-7-(1-methyl-1H-pyrazol-4-yl)quinazolin-2-yl)amino)-8-azabicyclo[3.2.1]oct-8-yl)propionitrile] | 9.92 | 9.14 | 7.83 | 9.70 | 
3 | Cc1cc(Nc2nc(NC3CCN(CCC#N)CC3)nc3sccc23)n[nH]1 [Embodiment 301, 3-(4-((4-((5-methyl-1H-pyrazol-3-yl)amino)thieno[2,3-d]pyrimidin-2-yl)amino)piperidin-1-yl)propionitrile] | 8.79 |  |  | 9.35 | pIC50 [1]: 8.90; Cmax ([2]; plasma, blood): 69.4 ng/mL; AUC(0-t) ([2]; plasma, blood): 143 ng·h/mL; AUC(0-inf) ([2]; plasma, blood): 145 ng·h/mL; half-life ([2]; plasma, blood): 1.07 h; MRT ([2]; plasma, blood): 1.65 h; Tmax ([2]; plasma, blood): 1 h; Cmax ([2]; colon): 1500 ng/mL; AUC(0-t) ([2]; colon): 4240 ng·h/mL; MRT ([2]; colon): 4.74 h; Tmax ([2]; colon): 5 h; Cmax ([2]; ileum): 21100 ng/mL; AUC(0-t) ([2]; ileum): 35300 ng·h/mL; AUC(0-inf) ([2]; ileum): 35300 ng·h/mL; half-life ([2]; ileum): 0.6 h; MRT ([2]; ileum): 1.23 h; Tmax ([2]; ileum): 1 h

Now from value to molecule, other results behind:

Row | pIC50 (JAK1) | pIC50 (JAK2) | pIC50 (JAK3) | pIC50 (TYK2) | SMILES | further results
4 | 9.96 | 9.28 | 8.05 | 8.64 | N#CCCN1[C@@H]2CC[C@H]1C[C@H](Nc1nc(Nc3ncc(CO)s3)cc3ncccc13)C2 [Embodiment 2] | 
5 | 7.35 | < 7.00 | < 7.00 | 7.33 | N#CCCN1[C@@H]2CC[C@H]1C[C@H](Nc1nc(Nc3cnccn3)cc3ncccc13)C2 [Embodiment 29, 3-((3-exo)-3-((7-(pyrazin-2-ylamino)-1,6-diazanaphthalen-5-yl)amino)-8-azabicyclo[3.2.1]oct-8-yl)propionitrile] | 
6 | 8.11 | 8.20 | 7.59 | 7.47 | Cc1cc(Nc2cc3ncccc3c(N3CC4CCC(C3)N4CCC#N)n2)n[nH]1 [Embodiment 109, 3-(3-(7-((5-methyl-1H-pyrazol-3-yl)amino)-1,6-diazanaphthalen-5-yl)-3,8-diazabicyclo[3.2.1]oct-8-yl)propionitrile] | 
7 | 8.97 | 8.94 | 7.58 | 9.08 | Cc1cc(Nc2nc(N[C@@H]3C[C@H]4CC[C@@H](C3)N4CCC#N)nc3cnccc23)n[nH]1 [Embodiment 173, 3-((3-exo)-3-((4-((5-methyl-1H-pyrazol-3-yl)amino)pyrido[3,4-d]pyrimidin-2-yl)amino)-8-azabicyclo[3.2.1]oct-8-yl)propionitrile] | 
